Results taken from PubChem BioAssay AID248 (DTP/NCI, 2004).
Values joined by “and” are separate entries in the source; they are usually repeats but may differ in a detail not shown here. Equal entries are not always repeated. Inconclusive results and toxic doses are left out. Rule as the data show it: active = T/C of 150% or more; inactive = T/C below 125%.

System: L1210 leukemia ip in BDF1 mice, survival T/C
Assay: NCI In Vivo Anticancer Drug Screen. Data for tumor model L1210 Leukemia (intraperitoneal) in B6D2F1 (BDF1) mice
Conditions: endpoint: mean survival time, higher = longer survival
In short: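 Antitumor effect is assessed in tumor-bearing animals. Survival in the compound arm is compared with a vehicle-dosed control arm and expressed as their quotient.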

[1] = dose: 100.0 mg/kg/injection, schedule: Q01DX009 (ip), vehicle: saline with Tween-80
[2] = dose: 200.0 mg/kg/injection, schedule: Q01DX009 (ip), vehicle: saline with Tween-80
[3] = dose: 400.0 mg/kg/injection, schedule: Q01DX009 (ip), vehicle: saline with Tween-80
[4] = dose: 100.0 mg/kg/injection, schedule: Q01DX009 (ip), vehicle: saline
[5] = dose: 200.0 mg/kg/injection, schedule: Q01DX009 (ip), vehicle: saline
[6] = dose: 50.0 mg/kg/injection, schedule: Q01DX009 (ip), vehicle: saline
[7] = dose: 100.0 mg/kg/injection, schedule: Q04DX003 (ip), vehicle: saline
[8] = dose: 200.0 mg/kg/injection, schedule: Q04DX003 (ip), vehicle: saline
[9] = dose: 100.0 mg/kg/injection, schedule: Q04DX003 (ip), vehicle: saline with Tween-80
[10] = dose: 200.0 mg/kg/injection, schedule: Q04DX003 (ip), vehicle: saline with Tween-80
[11] = dose: 400.0 mg/kg/injection, schedule: Q04DX003 (ip), vehicle: saline with Tween-80
[12] = dose: 50.0 mg/kg/injection, schedule: Q01DX001 (ip), vehicle: saline
[13] = dose: 100.0 mg/kg/injection, schedule: Q01DX001 (ip), vehicle: saline
[14] = dose: 200.0 mg/kg/injection, schedule: Q01DX001 (ip), vehicle: saline
[15] = dose: 100.0 mg/kg/injection, schedule: Q01DX009 (ip), vehicle: Klucel (hydroxypropylcellulose) (HPC)
[16] = dose: 100.0 mg/kg/injection, schedule: Q04DX003 (ip), vehicle: Klucel (hydroxypropylcellulose) (HPC)
[17] = dose: 200.0 mg/kg/injection, schedule: Q01DX009 (ip), vehicle: Klucel (hydroxypropylcellulose) (HPC)
[18] = dose: 200.0 mg/kg/injection, schedule: Q04DX003 (ip), vehicle: Klucel (hydroxypropylcellulose) (HPC)
[19] = dose: 400.0 mg/kg/injection, schedule: Q04DX003 (ip), vehicle: Klucel (hydroxypropylcellulose) (HPC)

Measured: T/C

COc1cc2c(c(OC)c1OC)-c1ccc(OC)c(=O)cc1[C@@H](NC(=O)c1ccccc1)CC2
inactive: dose: 0.13 mg/kg/injection, schedule: Q01DX Z (ip), vehicle: methylcellulose (MC) 87 % of control | dose: 0.2 mg/kg/injection, schedule: Q01DX Z (ip), vehicle: methylcellulose (MC) 120 % of control | dose: 0.29 mg/kg/injection, schedule: Q01DX Z (ip), vehicle: methylcellulose (MC) 122 % of control | dose: 0.44 mg/kg/injection, schedule: Q01DX Z (ip), vehicle: methylcellulose (MC) 95 % of control | dose: 0.75 mg/kg/injection, schedule: Q01DX Z (ip), vehicle: methylcellulose (MC) 101 % of control | dose: 0.8 mg/kg/injection, schedule: Q01DX Z (ip), vehicle: methylcellulose (MC) 103 % of control | dose: 1.2 mg/kg/injection, schedule: Q01DX Z (ip), vehicle: methylcellulose (MC) 106 % of control | dose: 1.6 mg/kg/injection, schedule: Q01DX015 (ip), vehicle: carboxymethylcellulose (CMC) 108 % of control | dose: 1.8 mg/kg/injection, schedule: Q01DX Z (ip), vehicle: methylcellulose (MC) 103 % of control | dose: 2.5 mg/kg/injection, schedule: Q01DX015 (ip), vehicle: carboxymethylcellulose (CMC) 108 % of control | dose: 2.7 mg/kg/injection, schedule: Q01DX Z (ip), vehicle: methylcellulose (MC) 105 % of control | dose: 3.7 mg/kg/injection, schedule: Q01DX015 (ip), vehicle: carboxymethylcellulose (CMC) 123 % of control | dose: 4.0 mg/kg/injection, schedule: Q01DX Z (ip), vehicle: methylcellulose (MC) 114 % of control | dose: 5.0 mg/kg/injection, schedule: Q01DX001 (ip), vehicle: carboxymethylcellulose (CMC) 104 % of control | dose: 5.6 mg/kg/injection, schedule: Q01DX015 (ip), vehicle: carboxymethylcellulose (CMC) 108 % of control | dose: 8.4 mg/kg/injection, schedule: Q01DX015 (ip), vehicle: carboxymethylcellulose (CMC) 86 % of control | dose: 10.0 mg/kg/injection, schedule: Q01DX001 (ip), vehicle: carboxymethylcellulose (CMC) 120 % of control | dose: 20.0 mg/kg/injection, schedule: Q01DX001 (ip), vehicle: carboxymethylcellulose (CMC) 118 % of control | dose: 27.0 mg/kg/injection, schedule: Q01DX001 (ip), vehicle: carboxymethylcellulose (CMC) 120 % of control

Cc1cc(C)c(C(Br)C(Br)c2c(C)cc(C)cc2C)c(C)c1 (centres undefined)
inactive: dose: 12.5 mg/kg/injection, schedule: Q01DX009 (ip), vehicle: saline with Tween-80 88 % of control | dose: 12.5 mg/kg/injection, schedule: Q04DX003 (ip), vehicle: saline with Tween-80 98 % of control | dose: 25.0 mg/kg/injection, schedule: Q01DX009 (ip), vehicle: saline with Tween-80 87 % of control | dose: 25.0 mg/kg/injection, schedule: Q04DX003 (ip), vehicle: saline with Tween-80 93 % of control | dose: 50.0 mg/kg/injection, schedule: Q04DX003 (ip), vehicle: saline with Tween-80 91 % of control

Oc1cc(O)c2c(c1)OC(c1ccc(O)c(O)c1)C(O)C2c1c(O)cc(O)c2c1OC(c1ccc(O)c(O)c1)C(O)C2 (centres undefined)
inactive: [1] 101 % of control | [2] 97 % of control | [3] 93 % of control

Nc1ncnc2c1ncn2CCCNC(=O)c1cc([N+](=O)[O-])cc([N+](=O)[O-])c1
inactive: [4] 103 % of control | [5] 96 % of control | dose: 400.0 mg/kg/injection, schedule: Q01DX009 (ip), vehicle: saline 90 % of control

C/C(=N/N=C(N)N)C(C)C
inactive: dose: 15.0 mg/kg/injection, schedule: Q01DX Z (ip), vehicle: carboxymethylcellulose (CMC) 102 % of control | dose: 27.0 mg/kg/injection, schedule: Q01DX Z (oral), vehicle: carboxymethylcellulose (CMC) 95 % of control | dose: 30.0 mg/kg/injection, schedule: Q01DX Z (ip), vehicle: carboxymethylcellulose (CMC) 100 % of control | dose: 40.0 mg/kg/injection, schedule: Q01DX Z (oral), vehicle: carboxymethylcellulose (CMC) 98 % of control | dose: 60.0 mg/kg/injection, schedule: Q01DX Z (ip), vehicle: carboxymethylcellulose (CMC) 92 % of control | dose: 60.0 mg/kg/injection, schedule: Q01DX Z (oral), vehicle: carboxymethylcellulose (CMC) 106 % of control | dose: 90.0 mg/kg/injection, schedule: Q01DX Z (oral), vehicle: carboxymethylcellulose (CMC) 98 % of control | dose: 120.0 mg/kg/injection, schedule: Q01DX Z (oral), vehicle: carboxymethylcellulose (CMC) 101 % of control | dose: 135.0 mg/kg/injection, schedule: Q01DX Z (oral), vehicle: carboxymethylcellulose (CMC) 97 % of control

CC(=O)NNCc1ccccc1
inactive: dose: 100.0 mg/kg/injection, schedule: Q01DX001 (ip), vehicle: Klucel (hydroxypropylcellulose) (HPC) 103 % of control | dose: 200.0 mg/kg/injection, schedule: Q01DX001 (ip), vehicle: Klucel (hydroxypropylcellulose) (HPC) 103 % of control | dose: 400.0 mg/kg/injection, schedule: Q01DX001 (ip), vehicle: Klucel (hydroxypropylcellulose) (HPC) 97 % of control

Cc1cccc(Br)[n+]1[O-]
inactive: [6] 110 % of control | [4] 112 % of control | [7] 102 % of control | [8] 97 % of control

COc1ccc(Nc2nc(N)nc(CNc3ccc(Cl)cc3)n2)cc1
inactive: [9] 98 % of control | [10] 103 % of control | [11] 98 % of control

OC(CN1CCCCC1)c1ccc2oc3ccccc3c2c1 (centres undefined)
inactive: dose: 100.0 mg/kg/injection, schedule: Q04DX002 (ip), vehicle: Klucel (hydroxypropylcellulose) (HPC) 110 % of control | dose: 200.0 mg/kg/injection, schedule: Q04DX002 (ip), vehicle: Klucel (hydroxypropylcellulose) (HPC) 92 % of control

O=C(O)c1ccc2c(c1)C(=O)N(c1ccccc1)C2=O
inactive: dose: 100.0 mg/kg/injection, schedule: Q04DX002 (ip), vehicle: saline with Tween-80 93 % of control | dose: 200.0 mg/kg/injection, schedule: Q04DX002 (ip), vehicle: saline with Tween-80 93 % of control | dose: 400.0 mg/kg/injection, schedule: Q04DX002 (ip), vehicle: saline with Tween-80 97 % of control

COc1ccc(/C=C/C(=O)c2cc(O)cc(OC)c2)cc1
inactive: [1] 102 % of control | [9] 100 % of control | [2] 94 % of control | [10] 108 % of control | [3] 94 % of control | [11] 95 % of control

CCc1nc2ccccc2[nH]1
inactive: [9] 97 % of control | [10] 102 % of control

C[n+]1ccccc1C=O
inactive: [12] 100 % of control | [6] 102 % of control and 103 % of control | dose: 50.0 mg/kg/injection, schedule: Q04DX003 (ip), vehicle: saline 98 % of control | [13] 100 % of control | [4] 104 % of control and 113 % of control | dose: 100.0 mg/kg/injection, schedule: Q04DX002 (ip), vehicle: saline 97 % of control and 105 % of control | [7] 88 % of control | [14] 103 % of control | [5] 102 % of control and 109 % of control | dose: 200.0 mg/kg/injection, schedule: Q04DX002 (ip), vehicle: saline 102 % of control and 105 % of control | [8] 107 % of control | dose: 400.0 mg/kg/injection, schedule: Q04DX002 (ip), vehicle: saline 101 % of control

c1ccc(COc2ccc3oc4ccccc4c3c2)cc1
inactive: [15] 96 % of control | [16] 94 % of control | [17] 94 % of control | [18] 96 % of control | dose: 400.0 mg/kg/injection, schedule: Q01DX009 (ip), vehicle: Klucel (hydroxypropylcellulose) (HPC) 96 % of control | [19] 91 % of control

O=C(O)c1cccc(OCc2ccccc2)c1
inactive: [15] 105 % of control | [17] 100 % of control

CC(C)(CO)C(O)C(=O)NCCCCC1CCCCC1 (centres undefined)
inactive: [16] 98 % of control | [18] 93 % of control | [19] 88 % of control

Cc1ccccc1C(c1ccccc1)N(C)C (centres undefined)
inactive: [12] 100 % of control | [13] 96 % of control | [14] 96 % of control | dose: 400.0 mg/kg/injection, schedule: Q01DX001 (ip), vehicle: saline 92 % of control
